Assay results taken from patent US20240287138A1, “CYCLIC PEPTIDES FOR INHIBITING TNF RECEPTOR 1 ACTIVITY” (Merck Sharp & Dohme LLC, priority 2023, published 2024).
Numbered stars: 1 amine (or outer) side, 2 acyl side, 3 side chain; on linkers, the order of the positions; unused ones are H or OH. Square brackets hold non-standard residues; d marks the D form. Peptide text beside a SMILES is read from it. * marks the point of attachment. Trp(βS-Me,7-OMe) = COc1cccc2c([C@H](C)[C@H](N)C(=O)O)c[nH]c12; X21 = COc1cccc2c([C@H](C)[C@H](N[*:1])C(=O)[*:2])c(C)[nH]c12; dPro(trans-4-NMe3+) = C[N+](C)(C)[C@@H]1CN[C@@H](C(=O)O)C1; Trp(1-CH2COOH) = N[C@@H](Cc1cn(CC(=O)O)c2ccccc12)C(=O)O; Phe(4-SO2NH2) = N[C@@H](Cc1ccc(S(N)(=O)=O)cc1)C(=O)O; Trp(7-Br) = N[C@@H](Cc1c[nH]c2c(Br)cccc12)C(=O)O; Trp(7-CN) = N#Cc1cccc2c(C[C@H](N)C(=O)O)c[nH]c12; Trp(7-Cl) = N[C@@H](Cc1c[nH]c2c(Cl)cccc12)C(=O)O; X27 = O=C(O)c1ccc(C[C@H](N[*:1])C(=O)[*:2])cc1F; Phe(3-CONH2) = NC(=O)c1cccc(C[C@H](N)C(=O)O)c1; Phe(3-COOH) = N[C@@H](Cc1cccc(C(=O)O)c1)C(=O)O; Phe(4-CONH2) = NC(=O)c1ccc(C[C@H](N)C(=O)O)cc1; Phe(4-COOH) = N[C@@H](Cc1ccc(C(=O)O)cc1)C(=O)O; X30 = O=C([C@@H](N[*:1])[C@H](O)c1ccncc1)[*:2]; Trp(7-aza) = N[C@@H](Cc1c[nH]c2ncccc12)C(=O)O; dPro(trans-4-F) = O=C(O)[C@H]1C[C@H](F)CN1; Pip(5R-OH) = O=C(O)[C@@H]1CC[C@@H](O)CN1; X1 = O=C([C@@H]1CC[C@H](N[*:1])C1)[*:2]; Gly(Nα-CH2CH2CONH2) = NC(=O)CCNCC(=O)O; Pip(4-aza) = O=C(O)[C@@H]1CNCCN1; 4Pal = N[C@@H](Cc1ccncc1)C(=O)O; NMeE = CN[C@@H](CCC(=O)O)C(=O)O; dHyp = O=C(O)[C@H]1C[C@H](O)CN1; Ahp(2) = CCCCC[C@H](N)C(=O)O; αMeS = C[C@](N)(CO)C(=O)O; Carboxymethyl = O=C(O)C*; Nle = CCCC[C@H](N)C(=O)O; Sar = CNCC(=O)O

These compounds were tested against T1, TNFα-induced NF-κB signal transduction pathway (TNFR1 signaling) in THP-1 cells (Homo sapiens, UniProt P19438) (assay: THP-1 Lucia NF-κB reporter cell assay, inhibition of TNFα-induced NF-κB signaling). Details: THP-1 NF-κB Lucia reporter cells, 10 ng/mL TNFα, 16-18 h, secreted luciferase; read-out: THP-1 IC50.
T1 sequence (P19438 30-455): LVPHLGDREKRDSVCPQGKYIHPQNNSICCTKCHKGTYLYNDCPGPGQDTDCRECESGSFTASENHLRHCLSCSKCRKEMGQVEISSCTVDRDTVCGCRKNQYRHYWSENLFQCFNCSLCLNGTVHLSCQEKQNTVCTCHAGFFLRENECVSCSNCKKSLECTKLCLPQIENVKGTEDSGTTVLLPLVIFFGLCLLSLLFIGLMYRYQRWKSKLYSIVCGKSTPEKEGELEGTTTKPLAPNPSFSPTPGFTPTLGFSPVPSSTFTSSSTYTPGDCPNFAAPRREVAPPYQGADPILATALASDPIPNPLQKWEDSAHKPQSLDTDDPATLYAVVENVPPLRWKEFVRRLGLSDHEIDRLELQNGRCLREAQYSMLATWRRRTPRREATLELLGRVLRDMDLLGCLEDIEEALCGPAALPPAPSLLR
Assay type: cell-based
How it was run: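 Inhibition of TNFR1-driven NF-κB activation was measured as luminescence of secreted reporter luciferase following overnight (16-18 h) stimulation with 10 ng/mL TNFα.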

| SMILES | IC50 [nM] |
| --- | --- |
| CCCC[C@@H]1NC(=O)[C@@H]2CC[C@@H](C2)NC(=O)[C@H]([C@@H](C)c2c[nH]c3c(OC)cccc23)NC(=O)CN(C)C(=O)[C@H](Cc2ccc(C(=O)O)cc2)NC(=O)[C@H](Cc2ccc(S(N)(=O)=O)cc2)NC(=O)[C@](C)(CO)NC(=O)[C@H](Cc2c[nH]c3c(C#N)cccc23)NC(=O)[C@H](Cc2ccc(C(=O)O)cc2)NC(=O)[C@H](CC(N)=O)NC(=O)[C@H]2C[C@H](OCC(=O)O)CN2C(=O)[C@H](Cc2c[nH]c3ncccc23)NC(=O)[C@@H]2CC[C@@H](O)CN2C(=O)[C@H](Cc2ccncc2)NC1=O [SEQ ID NO. 4] (cyclo([4Pal][Pip(5R-OH)][Trp(7-aza)][dHyp](Carboxymethyl)N[Phe(4-COOH)][Trp(7-CN)][αMeS][Phe(4-SO2NH2)][Phe(4-COOH)][Sar][Trp(βS-Me,7-OMe)][X1][Nle])) | 0.5 |
| CCCC[C@@H]1NC(=O)[C@@H]2CC[C@@H](C2)NC(=O)[C@H]([C@@H](C)c2c[nH]c3c(OC)cccc23)NC(=O)CN(C)C(=O)[C@H](Cc2ccc(C(=O)O)cc2)NC(=O)[C@H](Cc2ccc(C(N)=O)cc2)NC(=O)[C@](C)(CO)NC(=O)[C@H](Cc2c[nH]c3c(C#N)cccc23)NC(=O)[C@H](Cc2ccc(C(=O)O)c(F)c2)NC(=O)[C@H](CC(N)=O)NC(=O)[C@H]2C[C@H](O)CN2C(=O)[C@H](Cc2c[nH]c3ncccc23)NC(=O)[C@@H]2CC[C@@H](O)CN2C(=O)[C@H](Cc2ccncc2)NC1=O [SEQ ID NO. 8] (cyclo([4Pal][Pip(5R-OH)][Trp(7-aza)][dHyp]N[X27][Trp(7-CN)][αMeS][Phe(4-CONH2)][Phe(4-COOH)][Sar][Trp(βS-Me,7-OMe)][X1][Nle])) | 0.7 |
| CCCC[C@@H]1NC(=O)[C@@H]2CC[C@@H](C2)NC(=O)[C@H]([C@@H](C)c2c[nH]c3c(OC)cccc23)NC(=O)CN(C)C(=O)[C@H](Cc2ccc(C(N)=O)cc2)NC(=O)[C@H](Cc2ccc(S(N)(=O)=O)cc2)NC(=O)[C@](C)(CO)NC(=O)[C@H](Cc2c[nH]c3c(C#N)cccc23)NC(=O)[C@H](Cc2ccc(C(=O)O)cc2)NC(=O)[C@H](CC(N)=O)NC(=O)[C@H]2C[C@H]([N+](C)(C)C)CN2C(=O)[C@H](Cc2cn(CC(=O)O)c3ccccc23)NC(=O)[C@@H]2CC[C@@H](O)CN2C(=O)[C@H](Cc2ccncc2)NC1=O [SEQ ID NO. 9] (cyclo([4Pal][Pip(5R-OH)][Trp(1-CH2COOH)][dPro(trans-4-NMe3+)]N[Phe(4-COOH)][Trp(7-CN)][αMeS][Phe(4-SO2NH2)][Phe(4-CONH2)][Sar][Trp(βS-Me,7-OMe)][X1][Nle])) | 0.6 |
| CCCCC[C@@H]1NC(=O)[C@@H]2CC[C@@H](C2)NC(=O)[C@H]([C@@H](C)c2c[nH]c3c(OC)cccc23)NC(=O)CN(C)C(=O)[C@H](Cc2cccc(C(N)=O)c2)NC(=O)[C@H](Cc2ccc(C(N)=O)cc2)NC(=O)[C@](C)(CO)NC(=O)[C@H](Cc2c[nH]c3c(C#N)cccc23)NC(=O)[C@H](Cc2ccc(C(=O)O)cc2)NC(=O)[C@H](CC(N)=O)NC(=O)CN(CCC(N)=O)C(=O)[C@H](Cc2c[nH]c3ccccc23)NC(=O)[C@@H]2CNCCN2C(=O)[C@H](Cc2ccncc2)NC1=O [SEQ ID NO. 10] (cyclo([4Pal][Pip(4-aza)]W[Gly(Nα-CH2CH2CONH2)]N[Phe(4-COOH)][Trp(7-CN)][αMeS][Phe(4-CONH2)][Phe(3-CONH2)][Sar][Trp(βS-Me,7-OMe)][X1][Ahp(2)])) | 0.8 |
| CCCC[C@@H]1NC(=O)[C@@H]2CC[C@@H](C2)NC(=O)[C@H]([C@@H](C)c2c[nH]c3c(OC)cccc23)NC(=O)CN(C)C(=O)[C@H](Cc2ccc(C(N)=O)cc2)NC(=O)[C@H](Cc2ccc(C(N)=O)cc2)NC(=O)[C@](C)(CO)NC(=O)[C@H](Cc2c[nH]c3c(C#N)cccc23)NC(=O)[C@H](Cc2ccc(C(=O)O)cc2)NC(=O)[C@H](CC(N)=O)NC(=O)[C@H]2C[C@H](OC)CN2C(=O)[C@H](Cc2c[nH]c3ccccc23)NC(=O)[C@@H]2CC[C@@H](O)CN2C(=O)[C@H](Cc2ccncc2)NC1=O [SEQ ID NO. 14] (cyclo([4Pal][Pip(5R-OH)]W[dHyp](Me)N[Phe(4-COOH)][Trp(7-CN)][αMeS][Phe(4-CONH2)][Phe(4-CONH2)][Sar][Trp(βS-Me,7-OMe)][X1][Nle])) | 0.8 |
| CCCCC[C@@H]1NC(=O)[C@@H]2CC[C@@H](C2)NC(=O)[C@H]([C@@H](C)c2c[nH]c3c(OC)cccc23)NC(=O)CN(C)C(=O)[C@H](Cc2ccc(C(N)=O)cc2)NC(=O)[C@H](Cc2ccc(C(N)=O)cc2)NC(=O)[C@](C)(CO)NC(=O)[C@H](Cc2c[nH]c3c(C#N)cccc23)NC(=O)[C@H](Cc2ccc(C(=O)O)cc2)NC(=O)[C@H](CC(N)=O)NC(=O)[C@H]2C[C@H](O)CN2C(=O)[C@H](Cc2c[nH]c3ccccc23)NC(=O)[C@H](CO)NC(=O)[C@H]([C@H](O)c2ccncc2)NC1=O [SEQ ID NO. 16] (cyclo([Ahp(2)][X30]SW[dHyp]N[Phe(4-COOH)][Trp(7-CN)][αMeS][Phe(4-CONH2)][Phe(4-CONH2)][Sar][Trp(βS-Me,7-OMe)][X1])) | 0.6 |
| CCCC[C@@H]1NC(=O)[C@@H]2CC[C@@H](C2)NC(=O)[C@H]([C@@H](C)c2c[nH]c3c(OC)cccc23)NC(=O)CN(C)C(=O)[C@H](Cc2cccc(C(=O)O)c2)NC(=O)[C@H](Cc2ccc(C(N)=O)cc2)NC(=O)[C@](C)(CO)NC(=O)[C@H](Cc2c[nH]c3c(Cl)cccc23)NC(=O)[C@H](Cc2ccc(C(=O)O)cc2)NC(=O)[C@H](CC(N)=O)NC(=O)[C@H]2C[C@H](O)CN2C(=O)[C@H](Cc2c[nH]c3ccccc23)NC(=O)[C@@H]2CC[C@@H](O)CN2C(=O)[C@H](Cc2ccncc2)NC1=O [SEQ ID NO. 17] (cyclo([4Pal][Pip(5R-OH)]W[dHyp]N[Phe(4-COOH)][Trp(7-Cl)][αMeS][Phe(4-CONH2)][Phe(3-COOH)][Sar][Trp(βS-Me,7-OMe)][X1][Nle])) | 0.8 |
| CCCC[C@@H]1NC(=O)[C@@H]2CC[C@@H](C2)NC(=O)[C@H]([C@@H](C)c2c[nH]c3c(OC)cccc23)NC(=O)CN(C)C(=O)[C@H](Cc2ccc(C(N)=O)cc2)NC(=O)[C@H](Cc2ccc(C(N)=O)cc2)NC(=O)[C@](C)(CO)NC(=O)[C@H](Cc2c[nH]c3c(C#N)cccc23)NC(=O)[C@H](Cc2ccc(C(=O)O)cc2)NC(=O)[C@H](CC(N)=O)NC(=O)[C@H](CCC(=O)O)N(C)C(=O)[C@H](Cc2c[nH]c3ccccc23)NC(=O)[C@@H]2CC[C@@H](O)CN2C(=O)[C@H](Cc2ccncc2)NC1=O [SEQ ID NO. 19] (cyclo([4Pal][Pip(5R-OH)]W[NMeE]N[Phe(4-COOH)][Trp(7-CN)][αMeS][Phe(4-CONH2)][Phe(4-CONH2)][Sar][Trp(βS-Me,7-OMe)][X1][Nle])) | 0.6 |
| CCCC[C@@H]1NC(=O)[C@@H]2CC[C@@H](C2)NC(=O)[C@H]([C@@H](C)c2c[nH]c3c(OC)cccc23)NC(=O)CN(C)C(=O)[C@H](Cc2ccc(C(=O)O)cc2)NC(=O)[C@H](Cc2ccc(C(N)=O)cc2)NC(=O)[C@](C)(CO)NC(=O)[C@H](Cc2c[nH]c3c(Cl)cccc23)NC(=O)[C@H](Cc2ccncc2)NC(=O)[C@H](CC(N)=O)NC(=O)[C@H]2C[C@H](F)CN2C(=O)[C@H](Cc2c[nH]c3ccccc23)NC(=O)[C@@H]2CC[C@@H](O)CN2C(=O)[C@H](Cc2ccncc2)NC1=O [SEQ ID NO. 101] (cyclo([4Pal][Trp(7-Cl)][αMeS][Phe(4-CONH2)][Phe(4-COOH)][Sar][Trp(βS-Me,7-OMe)][X1][Nle][4Pal][Pip(5R-OH)]W[dPro(trans-4-F)]N)) | 0.9 |
| CCCC[C@@H]1NC(=O)[C@@H]2CC[C@@H](C2)NC(=O)[C@H]([C@@H](C)c2c(C)[nH]c3c(OC)cccc23)NC(=O)CN(C)C(=O)[C@H](Cc2ccc(C(=O)O)cc2)NC(=O)[C@H](Cc2ccc(C(N)=O)cc2)NC(=O)[C@](C)(CO)NC(=O)[C@H](Cc2c[nH]c3c(Cl)cccc23)NC(=O)[C@H](Cc2ccc(C(=O)O)cc2)NC(=O)[C@H](CC(N)=O)NC(=O)[C@H]2C[C@H](O)CN2C(=O)[C@H](Cc2c[nH]c3ccccc23)NC(=O)[C@@H]2CC[C@@H](O)CN2C(=O)[C@H](Cc2ccncc2)NC1=O [SEQ ID NO. 106] (cyclo([4Pal][Pip(5R-OH)]W[dHyp]N[Phe(4-COOH)][Trp(7-Cl)][αMeS][Phe(4-CONH2)][Phe(4-COOH)][Sar][X21][X1][Nle])) | 0.6 |
| CCCCC[C@@H]1NC(=O)[C@@H]2CC[C@@H](C2)NC(=O)[C@H]([C@@H](C)c2c[nH]c3c(OC)cccc23)NC(=O)CN(C)C(=O)[C@H](Cc2cccc(C(N)=O)c2)NC(=O)[C@H](Cc2ccc(C(N)=O)cc2)NC(=O)[C@](C)(CO)NC(=O)[C@H](Cc2c[nH]c3c(Br)cccc23)NC(=O)[C@H](Cc2ccc(C(=O)O)cc2)NC(=O)[C@H](CC(N)=O)NC(=O)[C@H]2C[C@H](O)CN2C(=O)[C@H](Cc2c[nH]c3ccccc23)NC(=O)[C@@H]2CNCCN2C(=O)[C@H](Cc2ccncc2)NC1=O [SEQ ID NO. 109] (cyclo([4Pal][Pip(4-aza)]W[dHyp]N[Phe(4-COOH)][Trp(7-Br)][αMeS][Phe(4-CONH2)][Phe(3-CONH2)][Sar][Trp(βS-Me,7-OMe)][X1][Ahp(2)])) | 0.8 |
